Data as given in PubChem BioAssay AID248 (DTP/NCI, 2004).
“And” between values parts separate entries of the source, which are not always exact repeats. Equal entries are not always repeated. Inconclusive results and toxic doses are left out. No stated cut-off is given here; in the data, active means T/C of 150% or more; inactive means T/C below 125%.

Test system: L1210 leukemia ip in BDF1 mice, survival T/C
Experiment: NCI In Vivo Anticancer Drug Screen. Data for tumor model L1210 Leukemia (intraperitoneal) in B6D2F1 (BDF1) mice
Conditions: endpoint: mean survival time, higher = longer survival
Outline: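 Tumor cells were implanted, animals were treated, and survival was followed. The result divides the treated measurement by the vehicle-control measurement.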

[1] = dose: 50.0 mg/kg/injection, schedule: Q01DX009 (ip), vehicle: saline
[2] = dose: 75.0 mg/kg/injection, schedule: Q01DX001 (ip), vehicle: saline
[3] = dose: 150.0 mg/kg/injection, schedule: Q01DX001 (ip), vehicle: saline
[4] = dose: 100.0 mg/kg/injection, schedule: Q01DX009 (ip), vehicle: saline
[5] = dose: 200.0 mg/kg/injection, schedule: Q01DX009 (ip), vehicle: saline
[6] = dose: 100.0 mg/kg/injection, schedule: Q01DX001 (ip), vehicle: saline with Tween-80
[7] = dose: 200.0 mg/kg/injection, schedule: Q01DX001 (ip), vehicle: saline with Tween-80
[8] = dose: 400.0 mg/kg/injection, schedule: Q01DX001 (ip), vehicle: saline with Tween-80
[9] = dose: 75.0 mg/kg/injection, schedule: Q01DX001 (ip), vehicle: acetone
[10] = dose: 150.0 mg/kg/injection, schedule: Q01DX001 (ip), vehicle: acetone

Measured: T/C

Cc1ccc2scc3c4ccccc4nc-3c2c1
inactive: dose: 25.0 mg/kg/injection, schedule: Q01DX009 (ip), vehicle: saline 95 % of control | [1] 95 % of control

CC(=O)OC(C)(C)/C=C/C(=O)[C@](C)(O)[C@H]1[C@H](O)C[C@@]2(C)[C@@H]3CC=C4[C@@H](C[C@H](O)C(=O)C4(C)C)[C@]3(C)C(=O)C[C@]12C
inactive: dose: 0.12 mg/kg/injection, schedule: Q01DX009 (ip), vehicle: saline 88 % of control | dose: 0.12 mg/kg/injection, schedule: Q04DX003 (ip), vehicle: saline 98 % of control | dose: 0.16 mg/kg/injection, schedule: Q01DX Z (ip), vehicle: saline 100 % of control | dose: 0.25 mg/kg/injection, schedule: Q01DX001 (ip), vehicle: saline 92 % of control | dose: 0.25 mg/kg/injection, schedule: Q01DX009 (ip), vehicle: saline 100 % of control | dose: 0.25 mg/kg/injection, schedule: Q01DX Z (ip), vehicle: saline 113 % of control | dose: 0.25 mg/kg/injection, schedule: Q04DX003 (ip), vehicle: saline 102 % of control | dose: 0.38 mg/kg/injection, schedule: Q01DX Z (ip), vehicle: saline 103 % of control | dose: 0.4 mg/kg/injection, schedule: Q01DX Z (ip), vehicle: carboxymethylcellulose (CMC) 93 % of control and 103 % of control | dose: 0.5 mg/kg/injection, schedule: Q01DX001 (ip), vehicle: saline 98 % of control | dose: 0.5 mg/kg/injection, schedule: Q01DX009 (ip), vehicle: saline 103 % of control | dose: 0.5 mg/kg/injection, schedule: Q04DX003 (ip), vehicle: saline 106 % of control | dose: 0.57 mg/kg/injection, schedule: Q01DX Z (ip), vehicle: saline 103 % of control | dose: 0.8 mg/kg/injection, schedule: Q01DX Z (ip), vehicle: carboxymethylcellulose (CMC) 108 % of control

CN1CCN(CCC=C2c3ccccc3Sc3ccc(S(=O)(=O)N(C)C)cc32)CC1
inactive: dose: 0.39 mg/kg/injection, schedule: Q01DX009 (ip), vehicle: saline 114 % of control | dose: 0.78 mg/kg/injection, schedule: Q01DX009 (ip), vehicle: saline 101 % of control | dose: 1.56 mg/kg/injection, schedule: Q01DX009 (ip), vehicle: saline 121 % of control | dose: 3.12 mg/kg/injection, schedule: Q01DX009 (ip), vehicle: saline 114 % of control | dose: 6.25 mg/kg/injection, schedule: Q01DX009 (ip), vehicle: saline 114 % of control | dose: 12.5 mg/kg/injection, schedule: Q01DX009 (ip), vehicle: saline 102 % of control | dose: 25.0 mg/kg/injection, schedule: Q04DX003 (ip), vehicle: saline 95 % of control | dose: 50.0 mg/kg/injection, schedule: Q04DX003 (ip), vehicle: saline 95 % of control | dose: 100.0 mg/kg/injection, schedule: Q01DX001 (ip), vehicle: carboxymethylcellulose (CMC) 121 % of control | dose: 100.0 mg/kg/injection, schedule: Q04DX003 (ip), vehicle: saline 122 % of control | dose: 200.0 mg/kg/injection, schedule: Q01DX001 (ip), vehicle: carboxymethylcellulose (CMC) 103 % of control | dose: 200.0 mg/kg/injection, schedule: Q04DX003 (ip), vehicle: saline 104 % of control | dose: 400.0 mg/kg/injection, schedule: Q01DX001 (ip), vehicle: carboxymethylcellulose (CMC) 118 % of control

CCCCN(CCCC)C(=S)[S-].CCCCN(CCCC)C(=S)[S-].[Zn]
inactive: dose: 37.5 mg/kg/injection, schedule: Q01DX009 (ip), vehicle: saline 90 % of control | [2] 88 % of control | dose: 75.0 mg/kg/injection, schedule: Q01DX009 (ip), vehicle: saline 90 % of control | dose: 75.0 mg/kg/injection, schedule: Q04DX003 (ip), vehicle: saline 98 % of control | [3] 93 % of control | dose: 150.0 mg/kg/injection, schedule: Q01DX009 (ip), vehicle: saline 86 % of control | dose: 150.0 mg/kg/injection, schedule: Q04DX003 (ip), vehicle: saline 87 % of control | dose: 300.0 mg/kg/injection, schedule: Q01DX001 (ip), vehicle: saline 89 % of control | dose: 300.0 mg/kg/injection, schedule: Q04DX003 (ip), vehicle: saline 93 % of control

O=C1c2cc([N+](=O)[O-])ccc2NC1(c1c[nH]c2ccccc12)c1c[nH]c2ccc(Br)cc12 (stereo unspecified)
inactive: dose: 50.0 mg/kg/injection, schedule: Q01DX001 (ip), vehicle: saline 96 % of control | dose: 100.0 mg/kg/injection, schedule: Q01DX001 (ip), vehicle: saline 96 % of control | dose: 200.0 mg/kg/injection, schedule: Q01DX001 (ip), vehicle: saline 96 % of control | dose: 400.0 mg/kg/injection, schedule: Q01DX001 (ip), vehicle: saline 93 % of control

CN(C)CCOC(=O)/C=C/c1ccccc1
inactive: [1] 89 % of control | [4] 96 % of control | [5] 88 % of control

Cc1cc(C)c(C(=O)/C=C(\N)C(=O)c2c(C)cc(C)cc2C)c(C)c1
inactive: dose: 50.0 mg/kg/injection, schedule: Q04DX003 (ip), vehicle: carboxymethylcellulose (CMC) 110 % of control | dose: 100.0 mg/kg/injection, schedule: Q04DX003 (ip), vehicle: carboxymethylcellulose (CMC) 98 % of control | dose: 200.0 mg/kg/injection, schedule: Q04DX003 (ip), vehicle: carboxymethylcellulose (CMC) 104 % of control

CCO/C=C/C(=O)NC(=S)Nc1ccccc1
inactive: [6] 97 % of control | dose: 100.0 mg/kg/injection, schedule: Q01DX009 (ip), vehicle: saline with Tween-80 86 % of control | [7] 100 % of control | dose: 200.0 mg/kg/injection, schedule: Q01DX009 (ip), vehicle: saline with Tween-80 86 % of control | [8] 102 % of control

CC(=O)Nn1c(=O)c(=O)oc2ccccc21
inactive: [9] 94 % of control | [10] 93 % of control | dose: 300.0 mg/kg/injection, schedule: Q01DX001 (ip), vehicle: acetone 96 % of control

S=C=NCc1ccccc1
inactive: [2] 97 % of control | [3] 105 % of control

CC(=O)NC1C(C)OC2COC(C)(C)OC2C1C (stereo unspecified)
inactive: [6] 100 % of control | [7] 100 % of control | [8] 104 % of control

Cc1cccc(C(O)C(=O)O)c1 (stereo unspecified)
inactive: [9] 94 % of control | [10] 92 % of control

COc1cc(CCN)ccc1O
inactive: [4] 87 % of control | [5] 90 % of control | dose: 400.0 mg/kg/injection, schedule: Q01DX009 (ip), vehicle: saline 95 % of control

CN1CCC(c2ccccc2)c2ccccc21 (stereo unspecified)
inactive: dose: 100.0 mg/kg/injection, schedule: Q04DX003 (ip), vehicle: other 95 % of control | dose: 200.0 mg/kg/injection, schedule: Q04DX003 (ip), vehicle: other 120 % of control | dose: 400.0 mg/kg/injection, schedule: Q04DX003 (ip), vehicle: other 98 % of control

CCOC(=O)C(C(=O)O)(C(c1ccccc1)c1ccccc1)C(c1ccccc1)c1ccccc1
inactive: dose: 75.0 mg/kg/injection, schedule: Q01DX001 (ip), vehicle: carboxymethylcellulose (CMC) 90 % of control

O=C(O)C1C(C(=O)O)C2(c3ccccc3)c3ccccc3C12 (stereo unspecified)
inactive: dose: 9.38 mg/kg/injection, schedule: Q01DX001 (ip), vehicle: other 92 % of control | dose: 18.75 mg/kg/injection, schedule: Q01DX001 (ip), vehicle: other 92 % of control | dose: 37.5 mg/kg/injection, schedule: Q01DX001 (ip), vehicle: other 102 % of control

c1ccc2cc3cc4cc5ccccc5cc4cc3cc2c1
inactive: [1] 97 % of control | [4] 101 % of control | [5] 101 % of control
